Measured values: patent US20240316047A1, “INHIBITORS OF RNA HELICASE DHX9 AND USES THEREOF” (ACCENT THERAPEUTICS, INC., priority 2022, published 2024)

Molecular target: Human recombinant DHX9 protein (Homo sapiens (Human), UniProt Q08211)
Experiment: DHX9 ATPase assay (ADP-Glo)
Type: biochemical
Conditions: for IC50: read-out: DHX9 Biochemical Inflection Point

Human recombinant DHX9 protein, sequence (Q08211 whole entry): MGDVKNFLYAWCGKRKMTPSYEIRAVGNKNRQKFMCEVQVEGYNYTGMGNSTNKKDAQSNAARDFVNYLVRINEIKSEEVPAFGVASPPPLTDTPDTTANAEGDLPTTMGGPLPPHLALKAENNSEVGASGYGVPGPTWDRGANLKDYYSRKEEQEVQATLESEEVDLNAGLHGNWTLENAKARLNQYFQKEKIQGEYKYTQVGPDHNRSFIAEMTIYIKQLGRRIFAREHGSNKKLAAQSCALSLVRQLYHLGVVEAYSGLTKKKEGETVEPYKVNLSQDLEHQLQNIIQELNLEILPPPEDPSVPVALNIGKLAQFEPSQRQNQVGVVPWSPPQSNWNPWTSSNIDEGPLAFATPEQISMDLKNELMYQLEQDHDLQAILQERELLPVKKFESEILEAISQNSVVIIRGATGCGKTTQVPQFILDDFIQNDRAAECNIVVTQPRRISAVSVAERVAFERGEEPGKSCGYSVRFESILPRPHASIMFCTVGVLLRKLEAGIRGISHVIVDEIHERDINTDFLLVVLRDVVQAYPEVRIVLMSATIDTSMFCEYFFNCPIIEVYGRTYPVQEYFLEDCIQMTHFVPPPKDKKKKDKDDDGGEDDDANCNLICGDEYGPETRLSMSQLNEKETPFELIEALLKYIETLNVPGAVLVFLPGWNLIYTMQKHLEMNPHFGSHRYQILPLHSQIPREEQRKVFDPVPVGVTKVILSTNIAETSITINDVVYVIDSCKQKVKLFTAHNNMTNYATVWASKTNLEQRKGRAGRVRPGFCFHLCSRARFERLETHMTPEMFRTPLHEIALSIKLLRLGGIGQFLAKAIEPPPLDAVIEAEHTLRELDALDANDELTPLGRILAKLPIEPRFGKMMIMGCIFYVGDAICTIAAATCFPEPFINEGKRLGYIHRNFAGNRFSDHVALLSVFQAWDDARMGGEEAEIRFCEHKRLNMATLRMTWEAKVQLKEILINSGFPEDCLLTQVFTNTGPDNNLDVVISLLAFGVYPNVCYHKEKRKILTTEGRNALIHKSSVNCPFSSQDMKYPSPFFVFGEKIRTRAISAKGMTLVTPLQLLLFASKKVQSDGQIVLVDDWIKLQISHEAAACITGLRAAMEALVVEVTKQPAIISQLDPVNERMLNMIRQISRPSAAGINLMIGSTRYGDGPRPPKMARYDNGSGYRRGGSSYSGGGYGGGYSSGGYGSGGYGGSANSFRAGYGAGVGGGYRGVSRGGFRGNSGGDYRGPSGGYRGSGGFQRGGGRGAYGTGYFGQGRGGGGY

Compound | DHX9 Biochemical Max Inhibition | IC50
Cc1cc(C(=O)Nc2cc(Cl)cc(NS(C)(=O)=O)c2)cn1-c1ncc(N2CC(F)(F)C2)cc1Cl [Example 406] | 75.7 | 55.1 nM
Cc1cc(C(=O)Nc2cc(Cl)cc(NS(C)(=O)=O)c2)cn1-c1ncc(S(C)(=O)=O)cn1 [Example 656] | 71.3 | 30.7 nM
CS(=O)(=O)Nc1cc(Cl)cc(NC(=O)c2cc(-c3ncc(F)cc3OCc3cncnc3)n(CC(F)(F)F)c2)c1 [Example 735] | 80.1 | 7 nM
CCOc1cnc(-c2csc(C(=O)Nc3cc(Cl)cc(NS(C)(=O)=O)c3)c2)nc1 [Example 342] | 73.6% | 33.1 nM
Cc1sc(C(=O)Nc2cc(Cl)cc(NS(C)(=O)=O)c2)cc1-c1ccc(N2CC(F)(F)C2)cn1 [Example 533] | 83.2 | 7.2 nM
Cc1cc(C(=O)Nc2cc(Cl)cc(NS(C)(=O)=O)c2)cn1-c1ccc(N2CCOCC2)cn1 [Example 93] | 70.6% | 1.7 nM
CCOc1cnc(-n2cc(C(=O)Nc3cc(Cl)cc(NS(C)(=O)=O)c3)cc2C)nc1 [Example 208] | 79.9% | 15.5 nM
CS(=O)(=O)Nc1cc(Cl)cc(NC(=O)c2cc(N3CCOC3=O)cs2)c1 [Example 433] | 71.2 | 24.1 nM
Cc1ccnc(OCc2cncc(F)c2)c1-c1cc(C(=O)Nc2cc(Cl)cc(NS(C)(=O)=O)c2)cn1C [Example 624] | 97.2 | 8.9 nM
CS(=O)(=O)Nc1cc(Cl)cc(NC(=O)c2cnn(-c3ncc(N4CC5(COC5)C4)cc3O)c2)c1 [Example 691] | 68.5 | 35.9 nM
Cn1cc(C(=O)Nc2cc(Cl)cc(NS(C)(=O)=O)c2)cc1-c1ccc(N2CCC2)cn1 [Example 538] | 66.9 | 9.2 nM
COc1cc(N2CC(F)(F)C2)cnc1-n1cc(C(=O)Nc2cc(Cl)cc(NS(C)(=O)=O)c2)cc1C [Example 421] | 81.6 | 10.8 nM
CS(=O)(=O)Nc1cc(Br)cc(NC(=O)c2cnn(-c3cccc(C(F)F)n3)c2)c1 [Example 56] | 48.8% | 197 nM
CS(=O)(=O)Nc1cc(Br)cc(NC(=O)c2cnn(-c3ncccc3N)c2)c1 [Example 162, 1-(3-aminopyridin-2-yl)-N-(3-bromo-5-(methylsulfonamido)phenyl)-1H-pyrazole-4-carboxamide] | 60.5% | 19.7 nM
CC(=O)N1CCC(c2cnc(-c3cc(C(=O)Nc4cc(Cl)cc(NS(C)(=O)=O)c4)sc3C)nc2)CC1 [Example 699] | 93.6 | 2.2 nM
Cc1cccc(C#N)c1-n1cc(C(=O)Nc2cc(Br)cc(NS(C)(=O)=O)c2)cn1 [Example 44] | 60.3% | 137 nM

Compound | DHX9 Biochemical Max Inhibition | IC50
CCc1sc(C(=O)Nc2cc(Cl)cc(NS(C)(=O)=O)c2)cc1-c1ccc(F)cn1 [Example 589] | 69.7 | –
CS(=O)(=O)Nc1cc(Br)cc(NC(=O)c2cnn(-c3ccccc3C(O)C(F)(F)F)c2)c1 (centres unmarked) [Example 103, N-(3-bromo-5-(methylsulfonamido)phenyl)-1-(2-(2,2,2-trifluoro-1-hydroxyethyl)phenyl)-1H-pyrazole-4-carboxamide] | 49.5% | 452 nM
Cc1sc(C(=O)Nc2cc(Cl)cc(NS(C)(=O)=O)c2)cc1-c1ncc(F)cc1-c1cncc(F)c1 [Example 607] | 75.9 | 13.1 nM
Cc1sc(C(=O)Nc2cc(Cl)cc(NS(C)(=O)=O)c2)cc1-c1ncc(O)cn1 [Example 583] | 72.5 | 4.9 nM
Cc1cc(C(=O)Nc2cc(Cl)cc(NS(C)(=O)=O)c2)cn1-c1ncc(F)cc1-c1cncc(F)c1 [Example 666] | 78.4 | 121 nM
COC1CCN(c2cc(F)cnc2-c2cc(C(=O)Nc3cc(Cl)cc(NS(C)(=O)=O)c3)sc2C)C1 (centres unmarked) [Example 505] | 54.3 | 46.4 nM
Cn1cc(C(=O)Nc2cc(Cl)cc(NS(C)(=O)=O)c2)cc1-c1cccc(N2CC(F)(F)C2)n1 [Example 551] | 87.4 | 105 nM
CS(=O)(=O)Nc1cc(Cl)cc(NC(=O)c2cc3cccnn3c2)c1 [Example 292] | 68.5% | 76 nM
CC(=O)N1CCN(c2cnc(-n3cc(C(=O)Nc4cc(Br)cc(NS(C)(=O)=O)c4)cn3)c(C)c2)CC1 [Example 87] | 55.7% | 26.1 nM
CS(=O)(=O)Nc1cc(Cl)cc(NC(=O)c2cnn(-c3ccccc3-c3cncc(F)c3)c2)c1 [Example 257] | 66.5% | 207 nM
CS(=O)(=O)Nc1cc(Cl)cc(NC(=O)c2cc(-c3ccccc3)c(CO)s2)c1 [Example 120, N-(3-chloro-5-(methylsulfonamido)phenyl)-5-(hydroxymethyl)-4-phenylthiophene-2-carboxamide] | 72.5% | 8.9 nM
CNc1cnc(-c2cc(C(=O)Nc3cc(Cl)cc(NS(C)(=O)=O)c3)sc2C)nc1 [Example 616, N-(3-chloro-5-methanesulfonamidophenyl)-5-methyl-4-[5-(methylamino)pyrimidin-2-yl]thiophene-2-carboxamide] | 84.2 | 11.4 nM
Cn1cc(C(=O)Nc2cc(Cl)cc(NS(C)(=O)=O)c2)cc1-c1ncccn1 [Example 82] | 69.4% | 9.2 nM
CS(=O)(=O)Nc1cc(Cl)cc(NC(=O)c2cn(-c3ccccc3)cn2)c1 [Example 1, N-(3-chloro-5-(methylsulfonamido)phenyl)-1-phenyl-1H-imidazole-4-carboxamide] | 48.3% | 320 nM
Cc1ccc(C#N)cc1-n1cc(C(=O)Nc2cc(Br)cc(NS(C)(=O)=O)c2)cn1 [Example 53] | 52.2% | 1910 nM
CS(=O)(=O)Nc1cc(Cl)cc(NC(=O)c2cc(-c3ccc(C(F)(F)F)cn3)cs2)c1 [Example 370] | 64.3% | –

Continued, values first:

DHX9 Biochemical Max Inhibition | IC50 | Compound
77.2 | 10.2 nM | Cc1cc(C(=O)Nc2cc(Cl)cc(NS(C)(=O)=O)c2)cn1-c1ccc(N2CCC2)cn1 [Example 397]
70.5 | 13.9 nM | CN1CC(Oc2cnc(-c3cc(C(=O)Nc4cc(Cl)cc(NS(C)(=O)=O)c4)cn3CC(F)(F)F)c(F)c2)C1 [Example 638]
66.8% | – | Cc1cccnc1-c1cc(C(=O)Nc2cc(Cl)cc(NS(C)(=O)=O)c2)cn1CC(F)F [Example 143, N-(3-chloro-5-(methylsulfonamido)phenyl)-1-(2,2-difluoroethyl)-5-(3-methylpyridin-2-yl)-1H-pyrrole-3-carboxamide]
65.4 | 38 nM | Cn1cc(C(=O)Nc2cc(Cl)cc(NS(C)(=O)=O)c2)cc1-c1ccc(N2CC3(C2)CC(F)(F)C3)cn1 [Example 498]
76.4% | 23.7 nM | Cc1sc(C(=O)Nc2cc(Cl)cc(NS(C)(=O)=O)c2)cc1-c1ncc(F)cc1F [Example 349]
88.8% | – | COc1cnc(-c2cc(C(=O)Nc3cc(Cl)cc(NS(C)(=O)=O)c3)sc2C)c(C)c1 [Example 361]
57.7% | 255 nM | CCS(=O)(=O)Nc1cc(F)cc(NC(=O)c2cc(-c3ccccc3)cs2)c1 [Example 74]
59.7% | 5590 nM | Cc1cncc2cc(C(=O)Nc3cc(Cl)cc(NS(C)(=O)=O)c3)sc12 [Example 290]
73.9 | 1.6 nM | COC1CCN(c2ccc(-c3cc(C(=O)Nc4cc(Cl)cc(NS(C)(=O)=O)c4)cn3C)nc2)CC1 [Example 515, N-(3-chloro-5-methanesulfonamidophenyl)-5-[5-(4-methoxypiperidin-1-yl)pyridin-2-yl]-1-methyl-1H-pyrrole-3-carboxamide]
47.4 | 184 nM | Cc1sc(C(=O)Nc2cc(Cl)cc(NS(C)(=O)=O)c2)cc1-c1ncc(F)cc1N1CCN(S(C)(=O)=O)CC1 [Example 506]
76 | 18.1 nM | Cn1cc(C(=O)Nc2cc(Cl)cc(NS(C)(=O)=O)c2)cc1-c1ccc(N2CC(F)C2)cn1 [Example 539]
64.3 | 117 nM | Cc1sc(C(=O)Nc2cc(Cl)cc(NS(C)(=O)=O)c2)cc1N1C(=O)N(c2ccccn2)C(C)(C)C1=O [Example 685]
63.8% | 170 nM | CS(=O)(=O)Nc1cc(Cl)cc(NC(=O)c2cnn(-c3ccccc3Oc3ncccn3)c2)c1 [Example 263]
72.1 | 29.2 nM | Cc1sc(C(=O)Nc2cc(Cl)cc(NS(C)(=O)=O)c2)cc1-c1ncc(N2CCC(F)(F)CC2)cc1F [Example 471]
78.5 | 8.9 nM | COc1ccc(-n2cc(C(=O)Nc3cc(Cl)cc(NS(C)(=O)=O)c3)cc2C)nc1 [Example 391]
66.9 | 71.3 nM | COc1cnc(-c2cc(C(=O)Nc3cc(Cl)cc(NS(C)(=O)=O)c3)cn2CC(F)(F)F)nc1 [Example 563]
63.1% | 164 nM | CS(=O)(=O)Nc1cc(Cl)cc(NC(=O)c2cc3c(F)c(F)ccc3s2)c1 [Example 324]
44.4% | 84.9 nM | CS(=O)(=O)Nc1cc(Br)cc(NC(=O)c2cnn(-c3ccccc3C=O)c2)c1 [Example 58]
84.1% | – | COc1ccc(-c2cc(C(=O)Nc3cc(Cl)cc(NS(C)(=O)=O)c3)sc2C)nc1 [Example 352]
68.1 | 28.5 nM | Cn1cc(C(=O)Nc2cc(Cl)cc(NS(C)(=O)=O)c2)cc1-c1ccc(Cl)cn1 [Example 576]
55.1% | 295 nM | CCc1cn2cc(C(=O)Nc3cc(Cl)cc(NS(C)(=O)=O)c3)ccc2n1 [Example 132]
